The record followed here is PMC11678245, “The Molecular Basis of the Intrinsic and Acquired Resistance to Azole Antifungals in Aspergillus fumigatus” (Journal of Fungi, 2024).

Values joined by “and” are separate entries in the source; they are usually repeats but may differ in a detail not shown here. Identical values can stand only once. Like-named read-outs stand apart in the source and are kept apart here.

In test [1] the test system is S. cerevisiae strain ARE T289A (AfCyp51A-6×His T289A, AfCprA2, AfErg6-FLAG). Nature of the test: MIC80 susceptibility, strain T289A. In kind it is cell-based, Saccharomyces cerevisiae. The settings on record: for MIC80: ± SD. As for the experimental part: (§1) The susceptibilities of S. cerevisiae strains to antifungal drugs were determined as minimum growth inhibitory concentration (MIC) values in 200 μL SD pH 6.8 [24]. Serial 2-fold dilutions of 100 μL of azole or control drugs in SD pH 6.8 were prepared in a 96-well microtiter plate. A portion of a 2 mL SD pH 6.8 overnight culture of the test strain was inoculated into 3 mL fresh SD pH 6.8 and incubated for 4 to 6 h at 30 °C to generate logarithmic-phase cells. These cells were then diluted with fresh SD pH 6.8 to OD600nm = 0.01 (3 × 10^4 CFU), and 100 μL of this cell suspension was added to microtiter plate wells. Cell growth after 48 h incubation at 30 °C with shaking at 200 rpm was determined at 600 nm using a BioTek™ Synergy™ 2 multi-Mode microplate reader controlled using Gen5™ Data Analysis Software version 3.16.10 (BioTek Instruments, Winooski, VT, USA). MIC80 values (80% growth inhibition in the presence of the test drug compared with the untreated control) for each yeast construct were determined as technical triplicates repeated three times for three separate clones.

The subject of test [2] is S. cerevisiae strain ARE Y121F T289A (AfCyp51A-6×His Y121F T289A, AfCprA2, AfErg6-FLAG). Nature of the test: MIC80 susceptibility, strain Y121F T289A. In kind it is cell-based, Saccharomyces cerevisiae. As for the experimental part:
as §1

In test [3] the test system is S. cerevisiae strain ARE Y121F (AfCyp51A-6×His Y121F, AfCprA2, AfErg6-FLAG). Nature of the test: MIC80 susceptibility, strain Y121F. In kind it is cell-based, Saccharomyces cerevisiae. As for the experimental part: as §1
Test [4] has as its system S. cerevisiae strain ARE I301T (AfCyp51A-6×His I301T, AfCprA2, AfErg6-FLAG). Nature of the test: MIC80 susceptibility, strain I301T. In kind it is cell-based, Saccharomyces cerevisiae. Particulars: for MIC80: ± SD. On the procedure: as §1
In test [5] the test system is S. cerevisiae strain BRE (AfCyp51B-6×His, AfCprA2, AfErg6-FLAG). Nature of the test: MIC80 susceptibility, strain BRE. In kind it is cell-based, Saccharomyces cerevisiae. The settings on record: strain BRE; for MIC80 / MIC: ± SD; for MIC: 48 h. On the procedure:
as §1

In test [6] the test system is S. cerevisiae strain ARE (AfCyp51A-6×His, AfCprA2, AfErg6-FLAG). Nature of the test: MIC80 susceptibility, strain ARE. In kind it is cell-based, Saccharomyces cerevisiae. On the procedure: as §1
For test [7], the system named is S. cerevisiae strain ADLS overexpressing ScCYP51-6×His. Nature of the test: MIC80 susceptibility, strain ADLS. In kind it is cell-based, Saccharomyces cerevisiae. On the procedure:
as §1

Test [8] deals with S. cerevisiae strain AR (AfCyp51A-6×His, AfCprA2-6×His). Nature of the test: MIC80 susceptibility, strain AR. In kind it is cell-based, Saccharomyces cerevisiae. Particulars: Saccharomyces cerevisiae, 48 h, pH 6.8. As for the experimental part:
as §1

In test [9] the test system is S. cerevisiae strain BR (AfCyp51B-6×His, AfCprA2-6×His). Nature of the test: MIC80 susceptibility, strain BR. In kind it is cell-based. Particulars: Saccharomyces cerevisiae, 48 h, pH 6.8. As for the experimental part: as §1
The test system of test [10] is S. cerevisiae strain A (AfCyp51A-6×His, native ScCyp51 retained). Nature of the test: MIC80 susceptibility, strain A. In kind it is cell-based. The settings on record: Saccharomyces cerevisiae, Table 2, SD pH 6.8, 48 h, 30 °C. As for the experimental part:
as §1

Test [11] deals with S. cerevisiae strain ADΔΔ (native ScCYP51). Nature of the test: MIC80 susceptibility, host strain ADΔΔ. In kind it is cell-based. Particulars: Saccharomyces cerevisiae, Table 2, SD pH 6.8, 48 h, 30 °C. As for the experimental part: as §1
The next test addresses T1, AfCYP51B-6×His (Aspergillus fumigatus, UniProt E9QY26).
T1 sequence (E9QY26 1-524): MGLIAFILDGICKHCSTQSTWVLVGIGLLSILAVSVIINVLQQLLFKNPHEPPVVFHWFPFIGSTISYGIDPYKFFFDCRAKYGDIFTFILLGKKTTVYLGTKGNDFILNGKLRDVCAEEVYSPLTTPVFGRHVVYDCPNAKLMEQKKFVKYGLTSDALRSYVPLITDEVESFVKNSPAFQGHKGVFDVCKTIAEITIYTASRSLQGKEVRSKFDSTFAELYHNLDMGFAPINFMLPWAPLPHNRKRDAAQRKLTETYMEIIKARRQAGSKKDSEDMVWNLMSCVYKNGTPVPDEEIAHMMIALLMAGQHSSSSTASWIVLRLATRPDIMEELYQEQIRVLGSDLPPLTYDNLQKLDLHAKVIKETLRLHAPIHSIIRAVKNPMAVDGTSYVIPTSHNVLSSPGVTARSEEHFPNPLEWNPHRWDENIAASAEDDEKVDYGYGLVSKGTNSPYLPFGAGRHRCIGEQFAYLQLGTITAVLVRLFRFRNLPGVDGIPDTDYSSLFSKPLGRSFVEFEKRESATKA
Nature of the test: Type II binding of azole drugs (difference spectra). As for the experimental part:
The concentration of AfCYP51A and AfCYP51B, purified using Ni-NTA affinity chromatography and used for the spectrophotometric type I and type II binding assays, was calculated using an extinction co-efficient of λ417nm = 117 mM^−1 cm^−1 applied to the absolute absorption spectrum of the preparations. In addition, the amount of “active” cytochrome P450 enzyme was determined using the carbon monoxide (CO) binding spectra of these preparations.
Type II binding difference spectra were obtained using 1 μM of affinity-purified CYP51 enzymes. VCZ, PCZ, VT-1161, DCZ, and MCF working solutions were prepared in DMSO, while FLC was prepared in Milli-Q water. Azole drugs were added to the sample cuvette, and corresponding amounts of DMSO or Milli-Q water were added to the reference cuvette. Drug binding curves were plotted using the difference spectrum peak and trough detected in the range of 410–425 nm. Dissociation constants (Kd) were determined by nonlinear regression (Levenberg–Marquardt algorithm) of the difference in absorbance between the peak and trough against the azole concentration using a rearrangement of the Morrison equation or the Hill equation [7]. GraphPad Prism 9.2.0 software was used to identify the best fit for the data.

The mark [12] stands for this setting: Table 3, strain ARE Y121F T289A, ± SD.
Where [13] appears, read: Table 3, strain ARE Y121F, ± SD.
The mark [14] stands for this setting: Saccharomyces cerevisiae, Table 3, strain ARE T289A, read-out: MIC80.
Where [15] appears, read: Saccharomyces cerevisiae, Table 3, strain ARE Y121F T289A, ± SD, read-out: MIC80.
[16] abbreviates: Saccharomyces cerevisiae, Table 3, strain ARE Y121F, ± SD, read-out: MIC80.
The mark [17] stands for this setting: Saccharomyces cerevisiae, Table 3, strain ARE I301T, read-out: MIC80.
The mark [18] stands for this setting: Saccharomyces cerevisiae, Table 3.
[19] abbreviates: Saccharomyces cerevisiae, Table 3, read-out: MIC80.
Setting [20] is: Saccharomyces cerevisiae, 48 h, read-out: MIC80.
[21] abbreviates: Saccharomyces cerevisiae, Table 3, strain ARE, ± SD, read-out: MIC80.
Where [22] appears, read: Saccharomyces cerevisiae, 48 h, pH 6.8.

On to `OC(Cn1cncn1)(Cn1cncn1)c1ccccc1F` [MCC7916], for which the MIC80 stood at 52 ± 6 µM in test [1] (Table 3, strain ARE T289A); 198 ± 41 µM in test [2] (setting [12]); 80 ± 17 µM in test [3] (setting [13]); 51 ± 6 µM in [4] (Table 3, strain ARE I301T); 21 ± 3 µM in test [5] (Table 3); 120 ± 40 µM in [6] (Table 3, strain ARE, ± SD).
In the case of `OC(Cn1cncn1)(Cn1cncn1)c1ccccc1` [MCC7915], the MIC80 came out at 248 ± 23 µM in test [1] (Table 3, strain ARE T289A); 219 ± 29 µM in [2] (setting [12]); 180 ± 11 µM in test [3] (setting [13]); 278 ± 45 µM in [4] (Table 3, strain ARE I301T); 223 ± 79 µM in test [5] (Table 3); 427 ± 23 µM in test [6] (Table 3, strain ARE, ± SD). For the same compound, the entries for the “reduced susceptibility compared to FLC” value in [5] and in [6] (strain ARE) were 50 fold and 2.5 fold, respectively.
Regarding `C[C@@H](c1nc(-c2ccc(C#N)cc2)cs1)[C@](O)(Cn1cncn1)c1cc(F)ccc1F` [IVC, isavuconazole], the MIC80 is 0.0102 ± 0.0057 µM in [1] (setting [14]); 0.11 ± 0.011 µM in test [2] (setting [15]); 0.071 ± 0.014 µM in test [3] (setting [16]); 0.0119 ± 0.0028 µM in test [4] (setting [17]); 0.0109 ± 0.003 µM in [5] (setting [19]); 0.021 ± 0.007 µM in test [6] (setting [21]). Besides, the “increase in resistance (MIC80) of strain Y121F T289A compared with strain ARE” value in test [2] is 3- to 5 fold. The “increase in resistance (MIC80) of strain Y121F compared with strain ARE” value in test [3] is 3- to 5 fold and 3 fold. For the same compound, the MIC in test [5] (setting [18]) and in test [6] (setting [20]) was less than 0.0156 µM in each case. Also, the “lower susceptibility of strain ARE compared to strain BRE” value in [6] is recorded as 2 fold.
Consider `CC1COC(Cn2cncn2)(c2ccc(Oc3ccc(Cl)cc3)cc2Cl)O1` (stereo not drawn) [DCZ, difenoconazole], for which the MIC80 was 0.04 ± 0.02 µM in [7] (setting [22]); 0.04 ± 0.01 µM in test [7] (Table 2, strain ADLS, SD pH 6.8, 48 h, 30 °C, ± SD); less than 0.01 µM in test [1] (Saccharomyces cerevisiae, 48 h, pH 6.8, Table 2, strain T289A, SD pH 6.8, 48 h, 30 °C); 0.92 ± 0.07 µM in [2] (setting [22]); 0.07 ± 0.01 µM in [8]; 0.37 ± 0.02 µM in test [3] (setting [22]). Besides, the MIC80 in [9] is less than 0.01 µM; in test [10], 0.01 µM; in [11] it was less than 0.01 µM; in test [4] (Saccharomyces cerevisiae, 48 h, pH 6.8, Table 2, strain I301T, SD pH 6.8, 48 h, 30 °C), 0.35 ± 0.06 µM; in test [5] (Saccharomyces cerevisiae, Table 2, SD pH 6.8, 48 h, 30 °C, read-out: MIC80), less than 0.01 µM; in test [6] (setting [22]) it was 0.64 ± 0.04 µM. Moreover, the “greater susceptibility (MIC80) of strain T289A compared with strain ARE” value in [1] amounted to 64 fold. In addition, the “increase in resistance (MIC80) of strain Y121F T289A compared with strain ARE” value in test [2] worked out at 1.5 fold. For the same compound, the “increased susceptibility of AfCYP51A Y121F mutant (vs ARE)” value in [3] came out at 2 fold. For the same compound, the “λpeak (type II difference spectrum)” value on AfCYP51B-6×His (1 μM enzyme) came to 426 nm. Moreover, the “λtrough (type II difference spectrum)” value at AfCYP51B-6×His (1 μM enzyme) was determined as 410 nm. Moreover, the “ΔAmax (type II binding)” value on AfCYP51B-6×His (1 μM enzyme, Hill equation) is given as 0.10. Further, the “Hill Number” value at AfCYP51B-6×His (type II binding) worked out at 1.55. Moreover, at AfCYP51B-6×His (type II binding, 1 μM enzyme, Hill equation), the Kd was determined as 1.76 ± 0.08 µM.
As to `C[C@@H](c1nc(-c2ccc(C#N)cc2)cs1)[C@](O)(Cn1cncn1)c1ccc(F)cc1F` [RVC, ravuconazole], the MIC80 in [1] (setting [14]) came out at 0.0032 ± 0.0015 µM; in [2] (setting [15]), 0.033 ± 0.006 µM; in test [3] (setting [16]), 0.047 ± 0.005 µM; in test [4] (setting [17]), 0.0034 ± 0.0015 µM; in [5] (setting [19]), 0.0038 ± 0.0008 µM; in [6] (setting [21]), 0.0088 ± 0.0023 µM. Moreover, in [2], the “increase in resistance (MIC80) of strain Y121F T289A compared with strain ARE” value is listed as 3- to 5 fold. The “increase in resistance (MIC80) of strain Y121F compared with strain ARE” value in [3] was 3- to 5 fold and 6 fold. Moreover, the MIC in test [5] (setting [18]) and in test [6] (setting [20]) was less than 0.0156 µM throughout. Further, the “lower susceptibility of strain ARE compared to strain BRE” value in test [6] is recorded as 2 fold.
For the compound `OC(Cn1cncn1)(Cn1cncn1)c1ccc(F)cc1` [MCC7917], the MIC80 was 103 ± 11 µM in test [1] (Table 3, strain ARE T289A); 242 ± 41 µM in [2] (setting [12]); 179 ± 9 µM in test [3] (setting [13]); 257 ± 37 µM in test [4] (Table 3, strain ARE I301T); 38 ± 11 µM in test [5] (Table 3); 411 ± 30 µM in test [6] (Table 3, strain ARE, ± SD).
With `OC(Cn1cncn1)(Cn1cncn1)c1cc(F)ccc1F` [MCC8768], the MIC80 came to 106 ± 28 µM in [1] (Table 3, strain ARE T289A); 1025 ± 148 µM in test [2] (setting [12]); 324 ± 109 µM in [3] (setting [13]); 211 ± 21 µM in [4] (Table 3, strain ARE I301T); 25 ± 8 µM in test [5] (Table 3); 354 ± 76 µM in test [6] (Table 3, strain ARE, ± SD). In addition, the “reduced susceptibility compared to FLC” value in test [1] (strain T289A) is reported as more than 6 fold; in test [4] (strain I301T) it was ~ 3 fold; in [5] it was more than 6 fold; in test [6] (strain ARE) it was ~ 3 fold.
